Reference: doi:10.1101/2024.09.05.611129v1 (biorxiv, 2024)

Target: MtKatG (Mycobacterium tuberculosis, UniProt P9WIE5)
Sequence (P9WIE5 whole entry): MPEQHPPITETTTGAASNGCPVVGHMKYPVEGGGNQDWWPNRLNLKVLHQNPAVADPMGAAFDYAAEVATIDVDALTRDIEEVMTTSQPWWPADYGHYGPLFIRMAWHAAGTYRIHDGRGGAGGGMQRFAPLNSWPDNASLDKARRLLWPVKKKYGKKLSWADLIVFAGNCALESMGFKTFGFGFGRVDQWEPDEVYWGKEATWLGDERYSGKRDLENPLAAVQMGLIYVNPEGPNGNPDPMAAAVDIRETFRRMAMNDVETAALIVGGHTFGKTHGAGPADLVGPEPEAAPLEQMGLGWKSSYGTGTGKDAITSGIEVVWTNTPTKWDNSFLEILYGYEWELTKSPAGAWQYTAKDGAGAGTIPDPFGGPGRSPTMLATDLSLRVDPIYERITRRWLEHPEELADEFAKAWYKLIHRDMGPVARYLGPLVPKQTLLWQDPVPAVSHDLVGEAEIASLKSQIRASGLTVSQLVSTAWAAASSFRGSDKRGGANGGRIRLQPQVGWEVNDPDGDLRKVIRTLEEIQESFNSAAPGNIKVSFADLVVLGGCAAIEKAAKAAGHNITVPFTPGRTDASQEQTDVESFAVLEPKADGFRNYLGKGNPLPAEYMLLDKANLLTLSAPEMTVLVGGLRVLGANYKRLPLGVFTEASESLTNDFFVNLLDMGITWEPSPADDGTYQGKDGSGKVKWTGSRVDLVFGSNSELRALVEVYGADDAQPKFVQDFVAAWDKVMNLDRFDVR

CC(C)(C)OO [t-BuOOH]
Km: 19 ± 6 mM
